From ChEMBL document CHEMBL1201862, “PubChem BioAssay data set” (2004)
Calls of active or inactive are those of the source. Unless noted, the calls are words filed in the database; no cut-off is given here.

Tests used:
[1] = suppression of NO production in INS-1E cells – cell-based, Griess absorbance, dry powder, set 3, dose response (AID 488870); format: functional; details: Rattus norvegicus
INS1 [2] = assay: suppression of NO production in INS-1E cells – cell-based, Griess absorbance, dry powder, set 2, dose response (AID 488868); format: functional; details: Rattus norvegicus
INS1 [3] = assay: beta-cell survival under cytokine stress – INS-1E, ATP luminescence, dry powder, dose response (AID 488844); format: functional, cell-based; details: Rattus norvegicus
Caspase-3 = target: T1, Caspase-3 (Homo sapiens, UniProt P42574); assay: inhibition of recombinant caspase-3 activity – biochemical, luminescence, set 2, selectivity assay for SENP protease inhibitor project, SAR follow-up (AID 588599); format: functional
T1 sequence (P42574 whole entry): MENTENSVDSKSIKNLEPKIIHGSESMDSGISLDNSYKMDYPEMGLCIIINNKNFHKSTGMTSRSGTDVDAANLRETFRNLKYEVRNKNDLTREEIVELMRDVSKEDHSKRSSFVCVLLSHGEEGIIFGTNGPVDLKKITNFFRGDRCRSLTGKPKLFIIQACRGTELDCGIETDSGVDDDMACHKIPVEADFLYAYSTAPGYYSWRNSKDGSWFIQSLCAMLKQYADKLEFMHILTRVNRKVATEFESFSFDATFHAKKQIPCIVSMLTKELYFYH

[4] = target: T2, Sentrin-specific protease 6 (Homo sapiens, UniProt Q9GZR1); assay: inhibition of human SENP6 catalytic domain – biochemical, luminescence, set 2, SAR follow-up (AID 588598); format: functional
T2 sequence (Q9GZR1 whole entry): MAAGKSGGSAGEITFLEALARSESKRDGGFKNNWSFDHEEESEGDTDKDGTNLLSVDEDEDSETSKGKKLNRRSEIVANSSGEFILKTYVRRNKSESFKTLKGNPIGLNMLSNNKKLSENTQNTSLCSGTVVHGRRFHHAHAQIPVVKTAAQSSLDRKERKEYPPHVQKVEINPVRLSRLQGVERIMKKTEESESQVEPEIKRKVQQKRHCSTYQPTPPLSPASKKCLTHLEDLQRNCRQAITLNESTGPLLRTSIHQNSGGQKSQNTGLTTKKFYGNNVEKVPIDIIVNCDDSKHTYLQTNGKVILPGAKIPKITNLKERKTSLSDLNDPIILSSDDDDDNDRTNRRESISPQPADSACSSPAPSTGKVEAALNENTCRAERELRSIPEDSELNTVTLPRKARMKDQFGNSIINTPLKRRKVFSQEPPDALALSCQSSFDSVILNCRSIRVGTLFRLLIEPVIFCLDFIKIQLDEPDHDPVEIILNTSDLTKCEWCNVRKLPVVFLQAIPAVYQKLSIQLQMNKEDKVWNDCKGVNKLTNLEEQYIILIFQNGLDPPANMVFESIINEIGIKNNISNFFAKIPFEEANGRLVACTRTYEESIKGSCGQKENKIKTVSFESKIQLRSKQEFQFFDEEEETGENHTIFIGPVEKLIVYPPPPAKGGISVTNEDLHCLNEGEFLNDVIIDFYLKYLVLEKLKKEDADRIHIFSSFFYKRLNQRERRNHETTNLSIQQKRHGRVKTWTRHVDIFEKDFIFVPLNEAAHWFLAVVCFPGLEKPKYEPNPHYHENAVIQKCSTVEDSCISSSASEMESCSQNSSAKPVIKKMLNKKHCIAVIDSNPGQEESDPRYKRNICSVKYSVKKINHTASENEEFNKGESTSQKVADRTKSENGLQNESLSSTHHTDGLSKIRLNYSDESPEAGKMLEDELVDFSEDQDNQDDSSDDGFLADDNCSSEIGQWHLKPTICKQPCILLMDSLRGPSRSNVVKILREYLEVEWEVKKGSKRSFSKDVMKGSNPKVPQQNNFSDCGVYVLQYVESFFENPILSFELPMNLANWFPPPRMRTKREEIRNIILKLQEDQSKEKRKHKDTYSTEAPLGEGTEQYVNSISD

[5] = target: T3, Sentrin-specific protease 8 (Homo sapiens, UniProt Q96LD8); assay: inhibition of sentrin protease 8 – biochemical, luminescence, set 2, SAR follow-up (AID 588601); format: functional
T3 sequence (Q96LD8 whole entry): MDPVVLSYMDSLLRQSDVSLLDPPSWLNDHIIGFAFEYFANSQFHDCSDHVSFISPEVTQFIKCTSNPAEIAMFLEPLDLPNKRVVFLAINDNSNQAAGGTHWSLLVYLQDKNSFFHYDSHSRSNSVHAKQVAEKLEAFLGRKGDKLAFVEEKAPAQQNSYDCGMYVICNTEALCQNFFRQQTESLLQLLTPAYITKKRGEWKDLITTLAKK

[6] = target: T4, Sentrin-specific protease 7 (Homo sapiens, UniProt Q9BQF6); assay: inhibition of human SENP7 cleavage activity – biochemical, luminescence, set 2, SAR follow-up (AID 588600); format: functional
T4 sequence (Q9BQF6 whole entry): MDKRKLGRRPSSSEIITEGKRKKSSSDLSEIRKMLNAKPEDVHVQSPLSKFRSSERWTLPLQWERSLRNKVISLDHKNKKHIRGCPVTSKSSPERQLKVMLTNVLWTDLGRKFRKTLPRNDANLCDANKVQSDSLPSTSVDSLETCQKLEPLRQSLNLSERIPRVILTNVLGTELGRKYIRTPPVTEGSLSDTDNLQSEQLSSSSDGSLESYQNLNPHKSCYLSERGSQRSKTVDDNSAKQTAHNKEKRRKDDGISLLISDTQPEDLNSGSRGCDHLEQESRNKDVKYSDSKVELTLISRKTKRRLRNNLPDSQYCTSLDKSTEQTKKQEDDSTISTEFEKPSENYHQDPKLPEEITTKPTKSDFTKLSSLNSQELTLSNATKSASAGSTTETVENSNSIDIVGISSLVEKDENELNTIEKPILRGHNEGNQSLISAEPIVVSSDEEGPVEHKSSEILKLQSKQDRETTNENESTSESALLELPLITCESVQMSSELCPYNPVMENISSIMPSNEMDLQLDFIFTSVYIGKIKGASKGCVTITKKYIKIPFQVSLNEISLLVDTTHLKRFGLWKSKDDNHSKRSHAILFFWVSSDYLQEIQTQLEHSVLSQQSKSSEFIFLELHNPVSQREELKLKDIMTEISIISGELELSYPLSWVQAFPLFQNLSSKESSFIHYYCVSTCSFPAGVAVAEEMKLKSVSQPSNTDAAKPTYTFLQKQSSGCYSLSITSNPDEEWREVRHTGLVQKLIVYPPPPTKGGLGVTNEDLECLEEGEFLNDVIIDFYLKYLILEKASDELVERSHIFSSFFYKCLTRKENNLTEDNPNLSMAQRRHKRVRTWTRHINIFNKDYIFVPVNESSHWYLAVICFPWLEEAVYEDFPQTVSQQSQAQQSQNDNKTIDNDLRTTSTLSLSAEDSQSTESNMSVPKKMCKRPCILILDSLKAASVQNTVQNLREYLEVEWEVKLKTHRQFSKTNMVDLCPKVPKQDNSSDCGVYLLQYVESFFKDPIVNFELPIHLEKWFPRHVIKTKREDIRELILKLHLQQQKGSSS

[7] = target: DNA dC->dU-editing enzyme APOBEC-3A (Homo sapiens, UniProt P31941); assay: SAR analysis of small molecule inhibitors of APOBEC3A DNA Deaminase via a fluorescence-based single-stranded DNA deaminase assay.; format: functional; details: read-out: IC50_Mean
DNA dC->dU-editing enzyme APOBEC-3A, sequence (P31941 whole entry): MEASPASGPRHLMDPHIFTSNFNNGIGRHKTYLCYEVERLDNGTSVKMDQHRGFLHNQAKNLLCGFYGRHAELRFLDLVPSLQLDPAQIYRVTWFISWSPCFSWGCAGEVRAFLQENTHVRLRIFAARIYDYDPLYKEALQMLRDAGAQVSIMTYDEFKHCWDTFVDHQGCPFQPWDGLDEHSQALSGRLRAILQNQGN

[8] = target: DNA dC->dU-editing enzyme APOBEC-3G (Homo sapiens, UniProt Q9HC16); assay: inhibition of APOBEC3G ssDNA deamination – biochemical, fluorescence, single-stranded DNA substrate, SAR follow-up (AID 602136); format: functional; details: read-out: IC50_Mean
DNA dC->dU-editing enzyme APOBEC-3G, sequence (Q9HC16 whole entry): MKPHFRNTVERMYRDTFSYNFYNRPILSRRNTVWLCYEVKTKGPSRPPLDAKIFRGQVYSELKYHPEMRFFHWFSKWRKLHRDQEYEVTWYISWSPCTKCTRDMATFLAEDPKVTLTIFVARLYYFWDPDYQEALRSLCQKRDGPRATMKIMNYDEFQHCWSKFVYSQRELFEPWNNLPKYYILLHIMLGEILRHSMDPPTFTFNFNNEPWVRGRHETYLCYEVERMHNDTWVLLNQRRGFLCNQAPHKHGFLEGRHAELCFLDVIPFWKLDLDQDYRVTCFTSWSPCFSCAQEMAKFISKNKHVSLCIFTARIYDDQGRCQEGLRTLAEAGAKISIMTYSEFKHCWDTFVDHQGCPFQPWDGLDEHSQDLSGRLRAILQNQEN

[9] = target: Sphingosine 1-phosphate receptor 3 (Homo sapiens, UniProt Q99500); assay: Late-stage fluorescence-based dose-response cell-based counterscreen assay to identify agonists of the Sphingosine 1-Phosphate Receptor 4 (S1P4): Sphingosine 1-Phosphate Receptor 3 (S1P3) agonist assay Set 2.; format: functional
Sphingosine 1-phosphate receptor 3, sequence (Q99500 whole entry): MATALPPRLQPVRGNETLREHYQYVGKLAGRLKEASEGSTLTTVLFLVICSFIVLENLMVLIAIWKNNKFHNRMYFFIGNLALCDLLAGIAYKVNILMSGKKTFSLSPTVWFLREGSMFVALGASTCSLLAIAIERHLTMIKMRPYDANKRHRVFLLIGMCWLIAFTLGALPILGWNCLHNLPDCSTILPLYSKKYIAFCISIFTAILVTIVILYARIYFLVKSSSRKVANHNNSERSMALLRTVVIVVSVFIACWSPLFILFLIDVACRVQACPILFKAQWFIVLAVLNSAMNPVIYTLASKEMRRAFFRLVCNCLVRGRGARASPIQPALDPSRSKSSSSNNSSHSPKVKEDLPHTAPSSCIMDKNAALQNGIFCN

[10] = target: Sphingosine 1-phosphate receptor 5 (Homo sapiens, UniProt Q9H228); assay: activation of human S1P5 receptor – cell-based, fluorescence, set 2, counter-screen for S1P4 agonist project, late-stage follow-up (AID 504867); format: functional
Sphingosine 1-phosphate receptor 5, sequence (Q9H228 whole entry): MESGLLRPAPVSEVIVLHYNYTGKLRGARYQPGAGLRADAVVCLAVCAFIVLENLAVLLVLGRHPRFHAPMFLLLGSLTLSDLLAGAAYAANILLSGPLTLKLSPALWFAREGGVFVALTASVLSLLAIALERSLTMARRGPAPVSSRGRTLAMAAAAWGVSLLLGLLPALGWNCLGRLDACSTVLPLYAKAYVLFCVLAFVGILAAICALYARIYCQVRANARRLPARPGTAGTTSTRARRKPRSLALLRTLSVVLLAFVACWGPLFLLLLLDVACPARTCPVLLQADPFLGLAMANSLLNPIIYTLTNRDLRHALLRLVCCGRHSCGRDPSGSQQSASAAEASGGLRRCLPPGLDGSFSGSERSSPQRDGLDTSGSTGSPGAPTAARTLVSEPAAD

[11] = target: Sphingosine 1-phosphate receptor 2 (Homo sapiens, UniProt O95136); assay: activation of human S1P2 receptor – cell-based, fluorescence, set 2, counter-screen for S1P4 agonist project, late-stage follow-up (AID 504873); format: functional
Sphingosine 1-phosphate receptor 2, sequence (O95136 whole entry): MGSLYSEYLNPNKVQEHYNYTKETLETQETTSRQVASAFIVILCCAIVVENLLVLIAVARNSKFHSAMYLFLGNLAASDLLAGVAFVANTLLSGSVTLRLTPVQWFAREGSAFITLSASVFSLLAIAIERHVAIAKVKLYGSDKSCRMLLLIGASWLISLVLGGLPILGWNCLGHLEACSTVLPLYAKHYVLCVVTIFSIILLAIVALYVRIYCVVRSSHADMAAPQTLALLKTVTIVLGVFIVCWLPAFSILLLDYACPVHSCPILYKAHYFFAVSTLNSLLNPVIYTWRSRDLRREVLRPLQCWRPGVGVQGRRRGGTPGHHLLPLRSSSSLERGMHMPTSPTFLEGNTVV

[12] = target: Sphingosine 1-phosphate receptor 1 (Homo sapiens, UniProt P21453); assay: Late-stage fluorescence-based dose-response cell-based counterscreen assay to identify agonists of the Sphingosine 1-Phosphate Receptor 4 (S1P4): Sphingosine 1-Phosphate Receptor 1 (S1P1) agonist assay Set 2.; format: functional
Sphingosine 1-phosphate receptor 1, sequence (P21453 whole entry): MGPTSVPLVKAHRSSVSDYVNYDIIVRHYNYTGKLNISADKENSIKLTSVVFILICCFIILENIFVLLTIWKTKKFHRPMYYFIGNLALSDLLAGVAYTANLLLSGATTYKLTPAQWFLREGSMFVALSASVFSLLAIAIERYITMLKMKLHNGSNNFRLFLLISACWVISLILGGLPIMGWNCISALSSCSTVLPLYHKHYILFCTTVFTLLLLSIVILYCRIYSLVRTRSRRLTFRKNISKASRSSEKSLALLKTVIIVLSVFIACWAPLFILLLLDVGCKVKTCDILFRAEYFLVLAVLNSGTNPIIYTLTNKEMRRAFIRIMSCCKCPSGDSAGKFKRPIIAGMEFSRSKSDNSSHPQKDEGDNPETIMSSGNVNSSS

C[C@@H]1CN([C@@H](C)CO)C(=O)c2cccc(NC(=O)Nc3cccc4ccccc34)c2O[C@H]1CN(C)S(=O)(=O)c1ccc2c(c1)OCO2
AC50 [1]: > 195 µM (inactive)
AC50 (INS1 [2]): 29.8 µM (active)
AC50 (INS1 [3]): 49.4 µM (active)

O=C(N/N=C/c1c[nH]c2ccccc12)C1CC1c1ccccc1 (stereo not drawn)
IC50 (Caspase-3): > 99 µM (inactive)
IC50 [4]: > 99 µM (inactive)
IC50 [5]: > 99 µM (inactive)
IC50 [6]: > 99 µM (inactive)

CCc1nnc(NC(=O)Cc2c(F)cccc2Cl)s1
IC50 [7]: > 99 µM (inactive)
IC50 [8]: > 99 µM (inactive)

CC/N=C1/S/C(=C\c2cc(C)n(-c3ccccc3)c2C)C(=O)N1CC
EC50 [9]: > 25 µM (inactive)
EC50 [10]: 0.237 µM (active)
EC50 [11]: > 25 µM (inactive)
EC50 [12]: 0.0683 µM (active)
